Assay results from PubChem BioAssay AID2060612 (Molecular Pharmacology Branch, DTP, NCI, 2025).
“And” between values parts separate entries of the source, which are not always exact repeats. Equal values may be shown once.

System: 565232-114-T-J1-PDC complex spheroid viability
Experiment: Anticancer human tumor 565232-114-T-J1-PDC patient-derived bladder carcinoma cell line growth inhibition [CLK]
Details: for viability, T/C: stronger effect = lower value
Text: A high-throughput screen of multi-cell type tumor spheroids was designed to identify active combinations of […] and targeted small molecules. Complex spheroids include a stromal component modeled by human endothelial cells (HUVEC) and fibroblasts modeled by human mesenchymal stem cells (MSCs). The concentration ranges selected for each drug and investigational agent were based upon clinically achievable concentrations if the clinical Cmax of the agent was known.
Compounds. The drugs and investigational agents: cirtuvivint (SM08502; NSC835563), CC-671 (NSC850746), vemurafenib (NSC761431), tapotoclax (NSC804041), sotorasib (NSC818433), adagrasib (NSC831453), MRTX-1133 (NSC836407), BAY2416964 (NSC825713), copanlisib (NSC816437), inavolisib (NSC800729), abemaciclib (NSC768073), osimertinib (NSC779217), entinostat (NSC756642), eltanexor (KPT-8602, NSC794443), venetoclax (NSC766270), ceralasertib (NSC777638), bortezomib (NSC756655), olaparib (NSC753686), talazoparib (NSC767125), alisertib (NSC759677), peposertib (NSC802822), gemcitabine (NSC613327), 5-fluorouracil (NSC19893), SN-38 (NSC673596), oxaliplatin (NSC266046), paclitaxel (NSC125973), and doxorubicin (NSC123127), were obtained from the National Cancer Institute (NCI) Developmental Therapeutics Program Chemical Repository. The FDA-approved anticancer drug set is available from the Developmental Therapeutics Program at https://dtp.cancer.gov/organization/dscb/obtaining/available plates.htm. […] The stock solutions were prepared in dimethyl sulfoxide (DMSO, Sigma-Aldrich, St. Louis, MO, cat. D2650), except for the platinum complexes which were prepared in saline (Quality Biological, Gaithersburg, MD, cat. 114-055-101), at 800-fold the tested concentration and stored at -70 degrees C prior to their use. All drugs and investigational agents were tested over a range starting from a high concentration at or near the clinical Cmax and decreasing in half-log increments. If the clinical Cmax for an agent had not been determined, the highest concentration tested was 10 microM.
Cell Culture. All cells were maintained in an incubator at 37 degrees C and 5% CO2 with 95% humidity. The PDC lines were cultured according to standard operating procedures established by the NCI PDMR. Briefly, all PDCs were thawed and cultured in Matrigel-coated flasks prepared with a working solution of 1X Ham's F-12 nutrient mix, without supplementation (Invitrogen, Waltham, MA, cat. 11765054), 100 U/mL penicillin-streptomycin (Invitrogen, cat. 15140122), and 2.5% Matrigel (Corning Inc., Corning, NY, cat. 354248) for the first three passages. The 947758-054-R-J2-PDC line was cultured in 6B/Colon 1A media, which includes advanced DMEM/F-12 (Thermo Fisher Scientific, cat. 12634028), 10 mM HEPES (Thermo Fisher Scientific, cat. 15630080), 1X GlutaMAX supplement (Thermo Fisher Scientific, cat. 35050061), 0.1 mg/mL primocin (InvivoGen, cat. ant-pm-2), 10% defined fetal bovine serum, heat inactivated (HyClone Laboratories Inc., cat. SH30070.03HI), 1.25 mM N-Acetyl-L-cysteine (Sigma-Aldrich, cat. A9165), 10 mM nicotinamide (Sigma-Aldrich, cat. N0636), 1X B-27 supplement (Thermo Fisher Scientific, cat. 17504044), 1X N-2 supplement (Thermo Fisher Scientific, cat. 17502048), and 10 microM Y-27632 dihydrochloride (Tocris Bioscience, cat. 1254). The 876862-298-R-J1-PDC was cultured in 6E media, which includes all 6B/Colon 1A media components plus 50% L-WRN conditioned media (ATCC, cat. CRL-3276), 50 ng/mL recombinant human EGF recombinant protein (hEGF; Thermo Fisher Scientific, cat. PHG0311), 10 ng/mL recombinant human fibroblast growth factor 10 (hGFG-10; PeproTech, cat. 100-26), 1 ng/mL recombinant human fibroblast growth factor 2 (hFGF-2; PeproTech, cat. 100-18B), and 1 µM prostaglandin E2 (PGE2; Tocris, cat. 2296). The 227483-062-R1-J1-PDC line was cultured in Panc media, containing all 6E components except hFGF-2, with the addition of 500 nM SB-431542 (Selleckchem, cat. S1067) and 10 nM gastrin (Tocris, cat. 3006). […]
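Note: spheroids exposed to compounds for 7 days before readout.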
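Throughout, for viability, T/C: 100% = DMSO vehicle wells with luminescence normalized to vehicle control.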

With `CC1(C)CCC(CN2CCN(c3ccc(C(=O)NS(=O)(=O)c4ccc(NCC5CCOCC5)c([N+](=O)[O-])c4)c(Oc4cnc5[nH]ccc5c4)c3)CC2)=C(c2ccc(Cl)cc2)C1` the viability, T/C (compound 0.0316 µM) was 83.5% and 111%, the viability, T/C (compound 0.1 µM) was 86.5% and 97.6% and the viability, T/C (compound 0.316 µM) was 80.5% and 95.8%. For the same compound, the viability, T/C (compound 1 µM) was 72.6% and 95.6%, the viability, T/C (compound 3.16 µM) was 78.2% and 100% and the viability, T/C (compound 10 µM) was 38.4% and 45.6%. The IC50 (curve of compound) was 7.08 µM and 9.11 µM.

Compound `O=c1[nH]cc(F)c(=O)[nH]1` + CNC(=O)c1ccc(Nc2nc(OC3CCCC3)c3c(-c4ccc5nc(C)oc5c4)c[nH]c3n2)c(OC)c1 has an IC50 (curve of first compound, second compound 0.0316 µM) greater than 10 µM, an IC50 (curve of first compound, second compound 0.1 µM) of less than 0.0316 µM and an IC50 (curve of first compound, second compound 0.316 µM) of less than 0.0316 µM. For the same compound, the IC50 (curve of first compound, second compound 1 µM) was less than 0.0316 µM, the IC50 (curve of first compound, second compound 3.16 µM) was less than 0.0316 µM and the IC50 (curve of first compound, second compound 10 µM) was less than 0.0316 µM. The viability, T/C (second compound 0.0316 µM, first compound 0.0316 µM) was 84.3%, the viability, T/C (second compound 0.0316 µM, first compound 0.1 µM) was 96.8% and the viability, T/C (second compound 0.0316 µM, first compound 0.316 µM) was 97.1%. The viability, T/C (second compound 0.0316 µM, first compound 1 µM) was 108%, the viability, T/C (second compound 0.0316 µM, first compound 3.16 µM) was 87.3% and the viability, T/C (second compound 0.0316 µM, first compound 10 µM) was 72.4%. For the same compound, the viability, T/C (second compound 0.1 µM, first compound 0.0316 µM) was 44%, the viability, T/C (second compound 0.1 µM, first compound 0.1 µM) was 50% and the viability, T/C (second compound 0.1 µM, first compound 0.316 µM) was 44%. It also gave a viability, T/C (second compound 0.1 µM, first compound 1 µM) of 48%, a viability, T/C (second compound 0.1 µM, first compound 3.16 µM) of 41% and a viability, T/C (second compound 0.1 µM, first compound 10 µM) of 46.1%. The viability, T/C (second compound 0.316 µM, first compound 0.0316 µM) was 29.7%, the viability, T/C (second compound 0.316 µM, first compound 0.1 µM) was 31.4% and the viability, T/C (second compound 0.316 µM, first compound 0.316 µM) was 31.2%. The viability, T/C (second compound 0.316 µM, first compound 1 µM) was 36%, the viability, T/C (second compound 0.316 µM, first compound 3.16 µM) was 35.3% and the viability, T/C (second compound 0.316 µM, first compound 10 µM) was 40.1%. For the same compound, the viability, T/C (second compound 1 µM, first compound 0.0316 µM) was 20.1%, the viability, T/C (second compound 1 µM, first compound 0.1 µM) was 21% and the viability, T/C (second compound 1 µM, first compound 0.316 µM) was 19.4%. The viability, T/C (second compound 1 µM, first compound 1 µM) was 23.1%, the viability, T/C (second compound 1 µM, first compound 3.16 µM) was 23.8% and the viability, T/C (second compound 1 µM, first compound 10 µM) was 28.5%. The viability, T/C (second compound 3.16 µM, first compound 0.0316 µM) was 16.9%, the viability, T/C (second compound 3.16 µM, first compound 0.1 µM) was 16.4% and the viability, T/C (second compound 3.16 µM, first compound 0.316 µM) was 17.8%. The viability, T/C (second compound 3.16 µM, first compound 1 µM) was 19.6%, the viability, T/C (second compound 3.16 µM, first compound 3.16 µM) was 18.6% and the viability, T/C (second compound 3.16 µM, first compound 10 µM) was 21.3%. For the same compound, the viability, T/C (second compound 10 µM, first compound 0.0316 µM) was 21.3%, the viability, T/C (second compound 10 µM, first compound 0.1 µM) was 16.1% and the viability, T/C (second compound 10 µM, first compound 0.316 µM) was 18.2%. It also gave a viability, T/C (second compound 10 µM, first compound 1 µM) of 19.9%, a viability, T/C (second compound 10 µM, first compound 3.16 µM) of 18.1% and a viability, T/C (second compound 10 µM, first compound 10 µM) of 18.9%.
